According to patent US9744252B2, “Compounds for binding to the platelet specific glycoprotein IIb/IIIa and their use for imaging of thrombi” (PIRAMAL IMAGING SA, priority 2011, dated 2017):
“And” between values parts separate entries of the source, which are not always exact repeats. Identical values can stand only once. “Also recorded” adds a separate entry of the source. Like-named read-outs stand apart in the source and are kept apart here.

Experiments:
[1] = In vitro metabolic stability in liver microsomes, mouse; type: in vitro ADME; conditions: NMRI, female, 0.3 μM, calculated
Description: In Vitro Metabolic Stability in Liver Microsomes
The incubation concentration was 0.3 μM. […] The samples were frozen over night at −20° C.
The recovery was almost 100% for all investigated species.

[2] = both, human, 0.3 μM, pH 7.4
Description: (§1) Human liver microsomes in suspension (protein content 0.5 mg/mL) were used for metabolic stability studies. The incubation concentration was 0.3 μM. […] After addition of 30 μL of test compound the assay was started. The compound was dissolved in an organic solvent and diluted with the same liver microsome medium in order to keep the organic content below the recommended concentration (dimethylsulfoxide DMSO <0.2% and methanol <1%). […] The samples were frozen over night at −20° C. The solutions were centrifuged for 15 min at 3000 g. The clear supernatant (100 μL) was used to determine the concentration. The analysis was performed with an Agilent 1200 HPLC system with a LCMS/MS detector.
(§2) The susceptibility of investigated compounds to degradation by phase-I oxidative metabolism was investigated using liver microsomes from different species.

[3] = female, cynomolgus monkey, 0.3 μM, pH 7.4
Description: as §1, §2

[4] = male, Wistar, rat, 0.3 μM, pH 7.4
Description: as §1, §2

[5] = In vitro metabolic stability in liver microsomes, human; conditions: all investigated species
Description: as §1, §2

human thrombi = assay: Ex vivo blood flow model: binding to human thrombi, with cold-compound competition; conditions: 3 minutes post-injection of 18F-labeled compound; ± SEM
From the text: Binding to Human Thrombi:
The binding of compounds to thrombi was further investigated in an ex vivo blood flow model similar to that described in “Wakhloo, A. K. et al. Thrombus and stroke 2008, in vitro models 57-66” but modified with regard to thrombus development. Briefly, an open handmade tube-set consisting of tygon-tubes (Tygon R-1000, part No AAU00007: I.D. 3.2 mm, O.D. 6.4 mm, Saint Gobain Performance Plastics North America), intermediate tubes (Intrafix® Infusion set, B. Braun, Melsungen, Germany) an open reservoir (10 mL Combitip, Eppendorf) and a chamber made of a piece of polyethylene-Tube, ([…] Polyethylene Tubing, Clay Adams, PE160, length: 6.5 cm) containing a loop of a roughened thread (fishing line: Okuma UltraMax whitefish, diameter: 0.14 mm, length: 5 cm; sandpaper: CAMI Grit designation: 600, CP918a, VSM) was used for thrombus formation. The connection between the intermediate tube and the thrombus chamber was made by trimmed tips (epTIPS, 200 μL, Eppendorff, Hamburg/Germany). The Reservoir and the thrombus chamber were fixed by clamps and stands. A peristaltic-pump (Minipuls 3, Gilson, Middelton/USA) was used to pump the blood around thereby adjusting the flow in the middle of the thrombus chamber to 70-90 cm per second, which was monitored by ultrasound Doppler measurement (Vevo 770 High-Resolution In Vivo Micro-Imaging System, VisualSonics, Toronto/Ontario, Canada; Scanhead: RMV 704, 40 MHz). The volume of the entire tube-set was 7.5 or 15 mL.
For each experiment fresh blood was taken from a volunteer using 10 mL citrate-tubes (Sarstedt S-Monovette 02.1067.001, 10 mL, Citrate 3.13%) and immediately laid into the turning-device of an incubator at a temperature of 37° C. (Heraeus miniTherm CTT with integrated rotation- and turning device, turning speed: 19 rotations per minute, Heraeus Instruments GmbH, Hanau/Germany). As needed, two tubes were taken out of the turning-device and 15 mL were transferred to a 20 mL Syringe (Omnifix®, B. Braun, Melsungen/Germany) and gently mixed with 0.75 mL CaCl2—Solution before the peristaltic pump was started and the whole content of the syringe was transferred into the reservoir of the tube-set via a cell strainer (BD Falcon™ cell strain, 40 μm, BD, Franklin Lakes, N.J. USA). […] Then, the pump was stopped, aliquots were taken from the blood and the thrombus together with the roughened thread was removed from the thrombus-chamber before both was weighted and measured in a gamma counter (Automatic Gamma Counter Wizard^2 3, Perkin Elmer). […] Finally the activity of the compound in blood and thrombus as well as the ratio between both was determined (cpm/weight [mg]). […]

[6] = Pharmacokinetics / biodistribution in mice; type: in vivo; conditions: nude mice, 185 KBq
Description: FIG. 3: Biodistribution of the compound described in example 41 in mice.
The biodistribution of the compound described in example 41 was determined in nude mice. Briefly, the mice received 185 KBq of the compound each. At different time points (1, 3, 10, 30, 120 minutes p.i., 3 mice per group) the animals were sacrificed and the organs of interest or aliquots thereof were removed, weighted and finally measured in a gamma counter (Automatic Gamma Counter Wizard^2 3, Perkin Elmer).

[7] = Blood clearance in a cynomolgus monkey (PET and gamma counter); type: in vivo; conditions: 25 MBq i.v., PET
Description: FIG. 4: Blood kinetics of the compound described in example 40 in cynomolgus monkey.
PET-imaging was performed continuously from shortly before up to 60 minutes post injection. Venous blood samples were taken at 3, 10, 30 and 60 minutes p.i. and were measured in a gamma-counter (Automatic Gamma Counter Wizard^2 3, Perkin Elmer) and expressed as cpm/mg blood. Additionally, the blood-concentration of the compound was measured from the PET-Image over the whole imaging period and expressed as % ID/g.
Blood Clearance in a Cynomolgus Monkey
The blood clearance of the compound described in example 40 has been determined in a cynomolgus monkey. A female cynomolgus monkey was anesthetized with a mixture of Xylazin (Rompun®, Bayer HealthCare, Leverkusen, Germany), 0.12 mL/kg bodyweight and Ketamine (Ketavet®, Pfizer) 0.12 mL/kg bodyweight i.m. The monkey was placed inside the PET-scanner (Inveon PET/CT, Siemens Medical, Erlangen) and 25 MBq of the compound has been injected i.v. while PET-imaging was performed continuously from shortly before up to 60 minutes post injection. Venous blood samples were taken at 3, 10, 30 and 60 minutes p.i. and were measured in a gamma-counter (Automatic Gamma Counter Wizard^2 3, Perkin Elmer). Additionally, the blood-concentration of the compound was measured from the PET-Image over the whole imaging period (FIG. 4).

[8] = tested on: arterial and venous thrombi; assay: Thrombus PET imaging and in vivo clot-to-blood ratio in cynomolgus monkeys; set-up: species or system cynomolgus monkey
Description: Thrombus-Imaging in Cynomolgus Monkeys
The ability of the compound described in example 40 for the imaging of thrombi was investigated in a PET-study with cynomolgus monkeys (female, 2.8-3.2 kg).
The first monkey was anesthetized with a mixture of Xylazin (Rompun®, Bayer HealthCare, Leverkusen, Germany), 0.12 mL/Kg and Ketamine (Ketavet®, Pfizer) 0.12 mL/Kg b.w. i.m. and additionally analgesized by an i.m. injection of 6 μg Buprenorphine per kg. While the investigation, small amounts of Ketamine have been injected i.m. if required. The left common carotid artery was exposed surgically and a polyethylene-tube ([…] Polyethylene Tubing, Clay Adams, PE50), which was roughened previously by sandpaper (600—CAMI Grit designation), was inserted into the vessel, advanced into the descending aorta and was left there for 30 minutes to allow for the development of a thrombus on the rough surface of the tube. Meanwhile, the monkey was placed inside the PET-scanner (Inveon PET/CT, Siemens Medical, Erlangen). […] The thickness of this layer was far below 1 mm (see also removed thrombus of Monkey 2, FIG. 7) and therewith also far below the resolution of the image, which is approximately 1 mm. This also means, that even slightest thrombi, even if their size is far less than the resolution of the imaging-device, can be visualized due to the massive accumulation of compound on the platelets of the thrombi.
At the end of the experiment the tube was removed carefully from the vessel before it was weighted and measured in a gamma counter (Automatic Gamma Counter Wizard^2 3, Perkin Elmer). […] Finally the activity of the compound in blood and thrombus as well as the ratio between the two was determined (cpm/weight [mg]). […]
The in vivo clot-to-blood ratio was determined from 5 thrombi out of the above described monkey experiments. As already mentioned above the thrombi had been removed from the vessels after imaging and had been weighted and measured in a gamma-counter (Automatic Gamma Counter Wizard^2 3, Perkin Elmer) together with blood samples taken from the animal. After incubation of the thrombi in Plasmin (Plasmin from Human Plasma, Sigma Aldrich, Plasmin-stock-solution: 500 μg Plasmin in 500 μL Tris-buffer (150 μM, pH 7.8), 20 μL Plasmin-stock-solution to 230 μL saline solution 0.9%) and removal of the thrombi from the catheter tubes, the netto weight of the thrombi was calculated and the concentration of the compound in thrombus (clot) and blood, as well as the ratio between the two was calculated.

SMILES: O=C(O)C[C@H](NC(=O)[C@@H]1CCCN(C(=O)CCC2CCNCC2)C1)c1cncc(OCCF)c1 [Example 3, (3S)-3-[5-(2-Fluoroethoxy)pyridin-3-yl]-3-[({(3R)-1-[3-(piperidin-4-yl)propanoyl]-piperidin-3-yl}carbonyl)amino]propanoic acid]
- CLblood [1]: 2.4 mL/day/kg
- CLblood [2]: 2.4 mL/day/kg
- CLblood [3]: 2.4 mL/day/kg
- CLblood [4]: 2.4 mL/day/kg

SMILES: O=C(O)C[C@H](NC(=O)[C@@H]1CCCN(C(=O)CCC2CCNCC2)C1)c1cncc(OCCF)c1 [Compound 3]
- recovery [5]: ~100%

SMILES: N#Cc1cc(-c2cncc([C@H](CC(=O)O)NC(=O)[C@@H]3CCCN(C(=O)CCC4CCNCC4)C3)c2)ccc1[18F] [Example 42, (3S)-3-[5-(3-Cyano-4-[^18F]fluorophenyl)pyridin-3-yl]-3-[({(3R)-1-[3-(piperidin-4-yl)propanoyl]piperidin-3-yl}carbonyl)amino]propanoic acid]
- Accumulation Thrombus [10^3 cpm/mg] (human thrombi): 39 ± 5 (n = 6) 10^3 cpm/mg

SMILES: O=C(O)C[C@H](NC(=O)[C@@H]1CCCN(C(=O)CCC2CCNCC2)C1)c1cccc(OCC[18F])c1 [Example 38, (3S)-3-[3-(2-[^18F]Fluoroethoxy)phenyl]-3-[({(3R)-1-[3-(piperidin-4-yl)propanoyl]piperidin-3-yl}carbonyl)amino]propanoic acid]
- Accumulation Thrombus [10^3 cpm/mg] (human thrombi): 41 ± 3 (n = 5) 10^3 cpm/mg

SMILES: O=C(O)C[C@H](NC(=O)[C@@H]1CCCN(C(=O)CCC2CCNCC2)C1)c1cncc(-c2ccc(OCC[18F])cc2)c1 [Example 41, (3S)-3-{5-[4-(2-[^18F]Fluoroethoxy)phenyl]pyridin-3-yl}-3-[({(3R)-1-[3-(piperidin-4-yl)propanoyl]piperidin-3-yl}carbonyl)amino]propanoic acid]
- Accumulation Thrombus [10^3 cpm/mg] (human thrombi): 44 ± 7 (n = 6) 10^3 cpm/mg
- elimination from the blood [6]: rapidly eliminated from the blood
- enhancement in the vessel-wall [6]: no enhancement in the vessel-wall
- excretion [6]: quickly excreted over the kidney and liver

SMILES: O=C(O)C[C@H](NC(=O)[C@@H]1CCCN(C(=O)CCC2CCNCC2)C1)c1cncc(OCC[18F])c1 [Example 40, (3S)-3-[5-(2-[^18F]Fluoroethoxy)pyridin-3-yl]-3-[({(3R)-1-[3-(piperidin-4-yl)propanoyl]piperidin-3-yl}carbonyl)amino]propanoic acid]
- contrast in the brain [7]: completely free of contrast
- signal in other tissue [7]: only marginal signal visible in any other tissue
- Blood [cpm/mg] ([8]; blood samples after imaging, Cynomolgus monkey): 90 cpm/mg and 130 cpm/mg and 100 cpm/mg
- PET signal / accumulation in thrombi ([8]; cynomolgus monkeys, 25 MBq or 15 MBq i.v., up to 60 minutes p.i.): bright signal inside the descending aorta alongside the roughened part of the tube; also recorded: all arterial and venous thrombi showed a bright signal; also recorded: surprisingly high accumulation even in slightest venous and arterial thrombi
- retention within the thrombus ([8]; cynomolgus monkeys, 60 minutes shown): almost completely remains within the thrombus over a long time
- background in surrounding tissue or organ ([8]; cynomolgus monkeys, PET): almost no background in any surrounding tissue or organ

SMILES: O=C(O)C[C@H](NC(=O)[C@@H]1CCCN(C(=O)CCC2CCNCC2)C1)c1ccc(OCC[18F])cc1 [Example 39, (3S)-3-[4-(2-[^18F]Fluoroethoxy)phenyl]-3-[({(3R)-1-[3-(piperidin-4-yl)propanoyl]piperidin-3-yl}carbonyl)amino]propanoic acid]
- Accumulation Thrombus [10^3 cpm/mg] (human thrombi): 86 ± 9 (n = 6) 10^3 cpm/mg
